Data set [1] can be described thus: Volume of distribution in Sprague-Dawley rat at 10 mg/kg, iv measured upto 24 hrs by LC-MS/MS analysis. It is filed as ADME, organism-based. As to conditions: in vivo.
The nature of data set [2]: AUC (0 to 24 hrs) in Sprague-Dawley rat at 10 mg/kg, iv measured upto 24 hrs by LC-MS/MS analysis. As to conditions: in vivo. Details: route intravenous, dose 10 mg/kg, time <=24. In kind it is ADME, organism-based.
Data set [3] can be described thus: Half life in Sprague-Dawley rat at 10 mg/kg, po measured upto 24 hrs by LC-MS/MS analysis. In kind it is ADME, organism-based. As to conditions: in vivo.
The nature of data set [4]: Clearance in Sprague-Dawley rat at 10 mg/kg, iv measured upto 24 hrs by LC-MS/MS analysis. In kind it is ADME, organism-based. As to conditions: in vivo.
The nature of data set [5]: AUC (0 to 24 hrs) in Sprague-Dawley rat at 10 mg/kg, po measured upto 24 hrs by LC-MS/MS analysis. In kind it is ADME, organism-based. Details: route oral, dose 10 mg/kg, time <=24. As to conditions: in vivo.
The nature of data set [6]: Tmax in Sprague-Dawley rat at 10 mg/kg, po measured upto 24 hrs by LC-MS/MS analysis. It is filed as ADME, organism-based. As to conditions: in vivo.
The nature of data set [7]: in vitro. As to conditions: PAMPA. (In general: In PAMPA a lipid-coated filter parts donor from acceptor wells.)
Description: Effective permeability of compound in PBS/EtOH buffer (7:3) at 25 ug/ml incubated for 18 hrs by PAMPA-BBB assay
The target in data set [8] is Cholinesterase (Homo sapiens, UniProt P06276). In words: Inhibition of human BChE using butyrylthiocholineiodide as substrate incubated for 10 mins by Ellman's method.
A short description of data set [9]: AUC (0 to infinity) in Sprague-Dawley rat at 10 mg/kg, iv by LC-MS/MS analysis. In kind it is ADME, organism-based. The arrangement: time infinity, route intravenous, dose 10 mg/kg. The note with it: in vivo.
The nature of data set [10]: Cmax in Sprague-Dawley rat at 10 mg/kg, po measured upto 24 hrs by LC-MS/MS analysis. It is filed as ADME, organism-based. The arrangement: route oral, dose 10 mg/kg, time <=24. As to conditions: in vivo.
The nature of data set [11]: Tmax in Sprague-Dawley rat at 10 mg/kg, iv measured upto 24 hrs by LC-MS/MS analysis. It is filed as ADME, organism-based. As to conditions: in vivo.
A short description of data set [12]: Volume of distribution in Sprague-Dawley rat at 10 mg/kg, po measured upto 24 hrs by LC-MS/MS analysis. In kind it is ADME, organism-based. As to conditions: in vivo.
The nature of data set [13]: Cmax in Sprague-Dawley rat at 10 mg/kg, iv measured upto 24 hrs by LC-MS/MS analysis. It is filed as ADME, organism-based. Details: route intravenous, dose 10 mg/kg, time <=24. As to conditions: in vivo.
Data set [14] in a line: MRT (0 to t) in Sprague-Dawley rat at 10 mg/kg, po measured upto 24 hrs by LC-MS/MS analysis. In kind it is ADME, organism-based. As to conditions: in vivo.
Data set [15] is described as follows: Oral bioavailability in Sprague-Dawley rat at 10 mg/kg measured upto 24 hrs by LC-MS/MS analysis. In kind it is ADME, organism-based. As to conditions: in vivo.
The nature of data set [16]: Clearance in Sprague-Dawley rat at 10 mg/kg, po measured upto 24 hrs by LC-MS/MS analysis. In kind it is ADME, organism-based. As to conditions: in vivo.
Data set [17] concerns the target Acetylcholinesterase (Homo sapiens, UniProt P22303). In words: Inhibition of human recombinant AChE expressed in HEK293 cells using acetylthiocholine iodide as substrate incubated for 10 mins by Ellman's method. It is filed as cell-based. (In general: Ellman's reagent forms a yellow product with free thiols.)
Data set [18] is described as follows: Half life in Sprague-Dawley rat at 10 mg/kg, iv measured upto 24 hrs by LC-MS/MS analysis. It is filed as ADME, organism-based. The note with it: in vivo.
Data set [19] in a line: MRT (0 to t) in Sprague-Dawley rat at 10 mg/kg, iv measured upto 24 hrs by LC-MS/MS analysis. It is filed as ADME, organism-based. The note with it: in vivo.
Data set [20] deals with Glycogen synthase kinase-3 beta (Homo sapiens, UniProt P49841). In words: biochemical.
Description: Inhibition of recombinant human N-terminal His6-tagged GSK3beta H350L mutant expressed in baculovirus infected Sf21 cells using prephosphorylated polypeptide as substrate incubated for 1 min followed by substrate addition and measured after 30 mins by Kinase-Glo luminescence assay
The nature of data set [21]: AUC (0 to infinity) in Sprague-Dawley rat at 10 mg/kg, po by LC-MS/MS analysis. In kind it is ADME, organism-based. Details: route oral, time infinity, dose 10 mg/kg. As to conditions: in vivo.

As usually defined, the AUC(0-t) is the area under the concentration-time curve up to a stated or last time point. High values mean high exposure, low ones low exposure. What is called half-life is the time in which the quantity being followed falls by half. A low value points to fast loss. Usually clearance stands for a measure of how efficiently the substance is removed, as volume per time. A high value points to a high capacity for elimination. A word on the Tmax: it is the time from dosing to the highest level. For orientation: Papp means a coefficient for how fast a substance crosses the barrier. Higher therefore signals fast passage. The term IC50 denotes the concentration that gives 50% inhibition. Usually AUC(0-inf) stands for total exposure, with the tail of the curve extrapolated. Read a high AUC(0-inf) as more exposure. As a reminder, the Cmax is the peak of the concentration-time curve. As usually defined, the MRT last is the average time that molecules of a dose stay in the body. In general, bioavailability refers to dose-corrected exposure relative to a reference, in per cent. The low end stands for little systemic uptake, the high end for much systemic uptake. In general, CL/F refers to clearance divided by bioavailability, as obtained after extravascular dosing.

Chain of Acetylcholinesterase (P22303 whole entry): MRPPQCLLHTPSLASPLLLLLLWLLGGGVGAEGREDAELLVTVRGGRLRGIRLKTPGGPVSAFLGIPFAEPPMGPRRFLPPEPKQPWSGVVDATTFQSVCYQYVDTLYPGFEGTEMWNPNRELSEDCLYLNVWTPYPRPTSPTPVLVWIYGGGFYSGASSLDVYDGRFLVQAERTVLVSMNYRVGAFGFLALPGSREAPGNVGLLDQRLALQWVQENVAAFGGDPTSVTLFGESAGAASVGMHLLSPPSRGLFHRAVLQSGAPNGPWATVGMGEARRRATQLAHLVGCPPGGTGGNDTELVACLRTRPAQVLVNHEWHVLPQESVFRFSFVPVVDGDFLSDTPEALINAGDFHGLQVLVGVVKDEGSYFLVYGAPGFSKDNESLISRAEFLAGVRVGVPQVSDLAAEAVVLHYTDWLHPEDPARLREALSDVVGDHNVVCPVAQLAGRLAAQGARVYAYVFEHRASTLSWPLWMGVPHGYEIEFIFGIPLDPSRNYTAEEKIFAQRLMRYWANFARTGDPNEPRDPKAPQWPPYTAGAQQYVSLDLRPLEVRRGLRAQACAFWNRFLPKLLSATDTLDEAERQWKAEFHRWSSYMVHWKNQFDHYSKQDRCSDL
Chain of Glycogen synthase kinase-3 beta (P49841 whole entry): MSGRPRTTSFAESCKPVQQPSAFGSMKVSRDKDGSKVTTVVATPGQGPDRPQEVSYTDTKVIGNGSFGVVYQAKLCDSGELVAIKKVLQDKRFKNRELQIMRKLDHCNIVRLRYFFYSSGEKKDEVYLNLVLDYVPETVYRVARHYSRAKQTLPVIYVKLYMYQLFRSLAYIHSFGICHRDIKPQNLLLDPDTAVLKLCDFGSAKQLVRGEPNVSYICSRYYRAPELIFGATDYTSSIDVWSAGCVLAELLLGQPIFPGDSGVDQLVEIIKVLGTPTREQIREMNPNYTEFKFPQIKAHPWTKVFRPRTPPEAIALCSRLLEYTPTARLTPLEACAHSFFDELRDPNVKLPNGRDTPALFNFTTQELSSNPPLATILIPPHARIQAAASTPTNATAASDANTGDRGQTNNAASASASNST
Chain of Cholinesterase (P06276 whole entry): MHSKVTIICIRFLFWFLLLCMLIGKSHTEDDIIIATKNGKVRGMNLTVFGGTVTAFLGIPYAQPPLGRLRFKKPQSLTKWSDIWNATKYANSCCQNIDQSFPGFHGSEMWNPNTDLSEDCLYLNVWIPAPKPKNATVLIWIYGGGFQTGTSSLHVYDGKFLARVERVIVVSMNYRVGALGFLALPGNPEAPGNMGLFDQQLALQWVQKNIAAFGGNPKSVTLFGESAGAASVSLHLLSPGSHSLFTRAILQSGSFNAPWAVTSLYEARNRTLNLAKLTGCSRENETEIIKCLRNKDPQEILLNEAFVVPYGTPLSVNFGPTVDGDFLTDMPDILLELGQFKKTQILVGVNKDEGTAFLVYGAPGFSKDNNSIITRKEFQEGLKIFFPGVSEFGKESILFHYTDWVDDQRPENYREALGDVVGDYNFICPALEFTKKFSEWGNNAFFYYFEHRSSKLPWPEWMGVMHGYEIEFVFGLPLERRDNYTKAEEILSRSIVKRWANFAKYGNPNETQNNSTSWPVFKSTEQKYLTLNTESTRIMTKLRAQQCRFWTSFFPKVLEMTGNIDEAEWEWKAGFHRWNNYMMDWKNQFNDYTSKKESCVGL

As for `NC(=O)c1sc(-c2ccnc(NC(=O)C3CC3)c2)nc1OCC1CCN(Cc2ccccc2)CC1`, the Vd turned out to be 55.2 L/kg in data set [1] and 93.6 L/kg in data set [12]. Further, the figures for the AUC(0-t) in data set [2] and in data set [5] were 1540 ng·h/mL and 622 ng·h/mL, respectively. The values for the half-life in [3] and in data set [18] were 4.5 h and 6.7 h, respectively. The clearance in data set [4] stood at 104 mL/min/kg. For the same compound, the Tmax in data set [6] was found to be 4.5 h; in data set [11], 6 min. Besides, the Papp at 18 h, 25 ug/ml in data set [7] was found to be 6.4 ×10⁻⁶ cm/s. The IC50 in data set [8] was found to be 12700 nM; in data set [17], 1500 nM; in [20] it was 94 nM. Also, the AUC(0-inf) in data set [9] was 1820 ng·h/mL; in [21] it was 688 ng·h/mL. Further, the Cmax in data set [10] was found to be 67.3 ng/mL; in [13], 507 ng/mL. Further, the MRT last at 24 h in data set [14] amounted to 8.1 h; in data set [19], 9.1 h. The compound further gave a bioavailability in data set [15] of 40.7%. In addition, the CL/F in [16] worked out at 267 mL/min/kg.

Values taken from ChEMBL document CHEMBL4680314, “Discovery of potent glycogen synthase kinase 3/cholinesterase inhibitors with neuroprotection as potential therapeutic agent for Alzheimer's disease” (Bioorg Med Chem, 2021).
